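Compound exposure: 48 hours, 5 concentrations, 96-well plates. TGI denotes the concentration required for complete inhibition of growth.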
Experiments:
Test in all cases: DTP human tumour cell line panel, 48 h
[1] = tested on: SK-MEL-28 melanoma
[2] = tested on: OVCAR-8 ovarian
[3] = tested on: SF-295 CNS
[4] = tested on: EKVX NSCLC
[5] = tested on: HCT-116 colon
[6] = tested on: SK-MEL-2 melanoma
[7] = tested on: 786-0 renal
[8] = tested on: RPMI-8226 leukemia
[9] = tested on: OVCAR-5 ovarian
[10] = tested on: M14 melanoma
[11] = tested on: HOP-62 NSCLC
[12] = tested on: KM12 colon
[13] = tested on: NCI/ADR-RES ovarian
[14] = tested on: MOLT-4 leukemia
[15] = tested on: SK-MEL-5 melanoma
[16] = tested on: TK-10 renal
[17] = tested on: UACC-62 melanoma
[18] = tested on: HL-60(TB) leukemia
[19] = tested on: SW-620 colon
[20] = tested on: LOX IMVI melanoma
[21] = tested on: SNB-75 CNS
[22] = tested on: A498 renal
[23] = tested on: RXF 393 renal
[24] = tested on: MDA-MB-435
[25] = tested on: NCI-H23 lung
[26] = tested on: MDA-N
[27] = tested on: ACHN renal
[28] = tested on: COLO 205 colon
[29] = tested on: DU-145 prostate
[30] = tested on: OVCAR-4 ovarian
[31] = tested on: BT-549 breast
[32] = tested on: UACC-257 melanoma
[33] = tested on: SNB-19 CNS
[34] = tested on: HCT-15 colon
[35] = tested on: HOP-92 NSCLC
[36] = tested on: SN12C renal
[37] = tested on: OVCAR-3 ovarian
[38] = tested on: U251 CNS
[39] = tested on: NCI-H460 lung
[40] = tested on: T-47D breast
[41] = tested on: PC-3 prostate
[42] = tested on: CAKI-1 renal
[43] = tested on: HCC-2998 colon
[44] = tested on: MCF7 breast
[45] = tested on: CCRF-CEM leukemia
[46] = tested on: SK-OV-3 ovarian
[47] = tested on: A549 NSCLC
[48] = tested on: IGROV1 ovarian
[49] = tested on: SF-268 CNS
[50] = tested on: K-562 leukemia
[51] = tested on: SR leukemia
[52] = tested on: MALME-3M melanoma
[53] = tested on: NCI-H226 lung
[54] = tested on: HT29 colon
[55] = tested on: MDA-MB-231 breast
[56] = tested on: UO-31 renal
[57] = tested on: HS 578T breast
[58] = tested on: SF-539 CNS

Molecule `C[C@@H]1C(=O)O[C@H]1[C@H](O)CO` has a TGI [1] of over 100 µM, a TGI [2] of over 100 µM and a TGI [3] of over 100 µM. For the same molecule, the TGI [4] was over 100 µM, the TGI [5] was over 100 µM and the TGI [6] was over 100 µM. For the same molecule, the TGI [7] was over 100 µM, the TGI [8] was over 100 µM and the TGI [9] was over 100 µM. For the same molecule, the TGI [10] was over 100 µM, the TGI [11] was over 100 µM and the TGI [12] was over 100 µM. The TGI [13] was over 100 µM, the TGI [14] was over 100 µM and the TGI [15] was over 100 µM. The TGI [16] was over 100 µM, the TGI [17] was over 100 µM and the TGI [18] was over 100 µM. The TGI [19] was over 100 µM, the TGI [20] was over 100 µM and the TGI [21] was over 100 µM. It also gave a TGI [22] of over 100 µM, a TGI [23] of over 100 µM and a TGI [24] of over 100 µM. The TGI [25] was over 100 µM, the TGI [26] was over 100 µM and the TGI [27] was over 100 µM. The TGI [28] was over 100 µM, the TGI [29] was over 100 µM and the TGI [30] was over 100 µM. For the same molecule, the TGI [31] was over 100 µM, the TGI [32] was over 100 µM and the TGI [33] was over 100 µM. It also gave a TGI [34] of over 100 µM, a TGI [35] of over 100 µM and a TGI [36] of over 100 µM. The TGI [37] was over 100 µM, the TGI [38] was over 100 µM and the TGI [39] was over 100 µM. For the same molecule, the TGI [40] was over 100 µM, the TGI [41] was over 100 µM and the TGI [42] was over 100 µM. The TGI [43] was over 100 µM, the TGI [44] was over 100 µM and the TGI [45] was over 100 µM. For the same molecule, the TGI [46] was over 100 µM and the TGI [47] was over 100 µM.

With `COc1cc(C2OC(N)=C(C#N)C3=C2C(C)CCC3)cc(OC)c1OC` (centres undefined) the TGI [1] was over 100 µM, the TGI [48] was over 100 µM and the TGI [2] was over 100 µM. For the same molecule, the TGI [3] was over 100 µM, the TGI [4] was over 100 µM and the TGI [5] was over 100 µM. The TGI [6] was over 100 µM, the TGI [7] was over 100 µM and the TGI [8] was over 100 µM. The TGI [9] was over 100 µM, the TGI [10] was over 100 µM and the TGI [11] was 40.7 µM. For the same molecule, the TGI [12] was over 100 µM, the TGI [13] was over 100 µM and the TGI [49] was over 100 µM. It also gave a TGI [14] of over 100 µM, a TGI [50] of over 100 µM and a TGI [15] of over 100 µM. The TGI [16] was over 100 µM, the TGI [17] was over 100 µM and the TGI [51] was over 100 µM. For the same molecule, the TGI [18] was over 100 µM, the TGI [19] was over 100 µM and the TGI [20] was over 100 µM. It also gave a TGI [52] of over 100 µM, a TGI [21] of 94.8 µM and a TGI [23] of over 100 µM. For the same molecule, the TGI [53] was over 100 µM, the TGI [54] was over 100 µM and the TGI [24] was over 100 µM. The TGI [25] was over 100 µM, the TGI [26] was over 100 µM and the TGI [27] was over 100 µM. It also gave a TGI [28] of over 100 µM, a TGI [29] of over 100 µM and a TGI [55] of over 100 µM. For the same molecule, the TGI [31] was over 100 µM, the TGI [32] was over 100 µM and the TGI [33] was over 100 µM. For the same molecule, the TGI [34] was over 100 µM, the TGI [56] was over 100 µM and the TGI [36] was over 100 µM. The TGI [37] was over 100 µM, the TGI [38] was over 100 µM and the TGI [40] was over 100 µM. The TGI [41] was over 100 µM, the TGI [42] was over 100 µM and the TGI [57] was over 100 µM. For the same molecule, the TGI [44] was over 100 µM, the TGI [45] was over 100 µM and the TGI [46] was over 100 µM. For the same molecule, the TGI [58] was over 100 µM.

— PubChem BioAssay (NCI)
